{
  "source": "paper PMC3671673",
  "about": "“In Vitro Morphological Assessment of Apoptosis Induced by Antiproliferative Constituents from the Rhizomes of Curcuma zedoaria” (Evidence-based Complementary and Alternative Medicine : eCAM, 2013)",
  "key": {"[1]": {"tested_on": "noncancer human lung fibroblast cell line (MRC-5)", "test": "Neutral red cytotoxicity assay, MRC-5", "format": "cell-based", "conditions": "72 h, mean ± SD of three replicates, read-out: IC50 (μg/mL) MRC-5", "description": "(§1) The human cancer cells KB, Ca Ski, MCF-7, HCT-116, A549, and noncancer human cell lines (MRC-5) were purchased from the American Tissue Culture Collection (ATCC, USA). The supplemented RPMI 1640 media and eagle minimum essential medium (EMEM) were purchased from Sigma-Aldrich, USA. The supplements or antibiotics such as foetal bovine serum (FBS), penicillin/streptomycin (P/S) (100 μg/mL), amphotericin B (50 μg/mL), and accutase were purchased from PAA Laboratories, Austria. Sodium pyruvate (11 mg/mL) purchased from Sigma-Aldrich, USA. The cells were cultured in a SHEL LAB water-jacketed CO2 incubator with […] tissue culture flasks (Nunc, Denmark), which was observed routinely under inverted microscope (Leica DMI3000 B, Germany) for any contamination and seeded into 96-well flat bottom microtiter plate (Nunc, Denmark). The extract or pure compounds was dissolved in dimethyl sulfoxide (DMSO, Molecular Biology Grade, >99.9%) from Sigma-Aldrich, USA. Microtiter plate incubator shaker (LT Biomax 500) was used and absorbance was measured at 540 nm using an ELISA microplate reader (EMax microplate reader of Molecular Devices, USA). MCF-7 and Ca Ski were cultured in RPMI 1640 media supplemented with 10% v/v FBS, P/S, and amphotericin B and MRC-5 in EMEM media with 10% v/v FBS, P/S, amphotericin B, and sodium pyruvate. The cells were cultured in tissue culture flask in 5% CO2 incubator kept at 37°C in a humidified atmosphere and observed routinely under inverted microscope from any contaminations. Each fresh medium was replaced every 2 or 3 days until cell confluence was achieved and the cells were detached by using accutase.\n(§2) The in vitro cytotoxicity activity was performed using the neutral red cytotoxicity assay based on the initial protocol as described earlier with some modifications. Briefly, cells were detached from the tissue culture flask with 1.0 mL solution of accutase and PBS solution. The cell pellet was obtained by centrifugation at 1,000 rpm for 5 minutes. The density of the viable cells was counted by 0.4% of trypan blue exclusion in a haemocytometer. Cells were then plated in 96-well microtiter plate (Nunc), at a concentration of 1 × 10^4 cells/well and incubated in a CO2 incubator at 37°C to allow the cells to adhere. After 24 h, the cells were treated with six different concentrations, that is, 1, 10, 25, 50, 75, and 100 μg/mL of each tested agent in three replicates. The plates were incubated for 72 h at 37°C in a 5% CO2 incubator. The untreated cells were regarded as a negative control, whilst cells incubated only with DMSO (0.5%, v/v) were used as a vehicle control. No effect due to the DMSO was observed. Doxorubicin was used as the positive control. After 72 h, the old medium was substituted with fresh medium containing 50 μg/mL neutral red. The 96-well plates were placed into incubator for 3 h. This is to allow the uptake of the vital dye into the lysosomes of viable and undamaged cells. Then, the media was discarded and cells were washed with 200 μL of neutral red washing solution. The dye was eluted from the cells by adding neutral red resorb solution (200 μL). The plate was further incubated for 30 min with rapid agitation on a microtiter plate shaker. The optical density (OD) of the eluted dye was read at 540 nm using a microplate reader. The experiments were conducted in triplicates. […] Cytotoxicity of each test agent is expressed as IC50 value. […]"}, "[2]": {"tested_on": "hormone-dependent breast cancer cell line (MCF-7)", "test": "cells", "format": "cell-based", "conditions": "Homo sapiens, MCF7, 72 h, neutral red, mean ± SD of three replicates, read-out: IC50 (μg/mL) MCF-7", "description": "as §1\n(§3) The in vitro cytotoxicity activity was performed using the neutral red cytotoxicity assay based on the initial protocol as described earlier with some modifications. Briefly, cells were detached from the tissue culture flask with 1.0 mL solution of accutase and PBS solution. The cell pellet was obtained by centrifugation at 1,000 rpm for 5 minutes. The density of the viable cells was counted by 0.4% of trypan blue exclusion in a haemocytometer. Cells were then plated in 96-well microtiter plate (Nunc), at a concentration of 1 × 10^4 cells/well and incubated in a CO2 incubator at 37°C to allow the cells to adhere. After 24 h, the cells were treated with six different concentrations, that is, 1, 10, 25, 50, 75, and 100 μg/mL of each tested agent in three replicates. The plates were incubated for 72 h at 37°C in a 5% CO2 incubator. The untreated cells were regarded as a negative control, whilst cells incubated only with DMSO (0.5%, v/v) were used as a vehicle control. No effect due to the DMSO was observed. Doxorubicin was used as the positive control. After 72 h, the old medium was substituted with fresh medium containing 50 μg/mL neutral red. The 96-well plates were placed into incubator for 3 h. This is to allow the uptake of the vital dye into the lysosomes of viable and undamaged cells. Then, the media was discarded and cells were washed with 200 μL of neutral red washing solution. The dye was eluted from the cells by adding neutral red resorb solution (200 μL). The plate was further incubated for 30 min with rapid agitation on a microtiter plate shaker. The optical density (OD) of the eluted dye was read at 540 nm using a microplate reader. The experiments were conducted in triplicates. The percentage of inhibition of each of the test samples was calculated according to the following formula using the OD values obtained: percentage of inhibition (%) = (OD control − OD sample)/OD control × 100%. The average of three replicates was then obtained. Cytotoxicity of each test agent is expressed as IC50 value. The IC50 value is the concentration of test agents that cause 50% inhibition or cell death, averaged from the three experiments. The IC50 for each extract was extrapolated from the graphs of the percentage inhibition versus concentration of test agents."}, "[3]": {"tested_on": "cervical carcinoma cell line (Ca Ski)", "test": "cells", "format": "cell-based", "conditions": "Homo sapiens, 72 h, neutral red, mean ± SD of three replicates, read-out: IC50 (μg/mL) Ca Ski", "description": "as §1, §3"}, "[4]": {"tested_on": "nasopharyngeal carcinoma cell line (KB)", "test": "Neutral red cytotoxicity assay, KB", "format": "cell-based, human", "conditions": "extracts, 72 h, mean ± SD of three replicates", "description": "(§4) The human cancer cells KB, Ca Ski, MCF-7, HCT-116, A549, and noncancer human cell lines (MRC-5) were purchased from the American Tissue Culture Collection (ATCC, USA). The supplemented RPMI 1640 media and eagle minimum essential medium (EMEM) were purchased from Sigma-Aldrich, USA. The supplements or antibiotics such as foetal bovine serum (FBS), penicillin/streptomycin (P/S) (100 μg/mL), amphotericin B (50 μg/mL), and accutase were purchased from PAA Laboratories, Austria. Sodium pyruvate (11 mg/mL) purchased from Sigma-Aldrich, USA. […] Microtiter plate incubator shaker (LT Biomax 500) was used and absorbance was measured at 540 nm using an ELISA microplate reader (EMax microplate reader of Molecular Devices, USA). […]\n(§5) The in vitro cytotoxicity activity was performed using the neutral red cytotoxicity assay based on the initial protocol as described earlier with some modifications. […] The density of the viable cells was counted by 0.4% of trypan blue exclusion in a haemocytometer. […] The optical density (OD) of the eluted dye was read at 540 nm using a microplate reader. […] Cytotoxicity of each test agent is expressed as IC50 value. […]"}, "[5]": {"tested_on": "lung carcinoma cell line (A549)", "test": "Neutral red cytotoxicity assay, A549", "format": "cell-based", "conditions": "Homo sapiens, extracts, 72 h, mean ± SD of three replicates, read-out: IC50 (μg/mL) A549", "description": "as §4, §5"}, "[6]": {"tested_on": "colon carcinoma cell line (HCT-116)", "test": "Neutral red cytotoxicity assay, HCT-116", "format": "cell-based", "conditions": "Homo sapiens, 72 h, mean ± SD of three replicates, read-out: IC50 (μg/mL) HCT-116", "description": "as §1, §2"}, "[7]": {"tested_on": "colon carcinoma cell line (HCT-116)", "set-up": "method as in PMID 19471192", "conditions": "HCT-116, reported previously, ref [21]; cited from earlier work"}, "[8]": {"tested_on": "hormone-dependent breast cancer cell line (MCF-7)", "set-up": "method as in PMID 19471192", "conditions": "MCF-7, reported previously, ref [21]; cited from earlier work"}, "[9]": {"tested_on": "cervical carcinoma cell line (Ca Ski)", "set-up": "method as in PMID 19471192", "conditions": "reported previously, ref [21]; cited from earlier work"}},
  "note": "Read-outs that look alike come from different tables or passages of the source.",
  "data": [
    {"smiles": "COc1cccc2c1C(=O)c1c(O)c3c(c(O)c1C2=O)C[C@@](O)(C(=O)CO)C[C@@H]3O[C@H]1C[C@H](N)[C@H](O)[C@H](C)O1", "note": "[Doxorubicin, reference compound]", "values": [
      {"measurement": "IC50", "setting": "[1]; MRC5, extracts", "value": "0.4 ± 0.03", "unit": "µg/mL"},
      {"measurement": "IC50", "setting": "[2]; extracts", "value": "0.05 ± 0.01", "unit": "µg/mL"},
      {"measurement": "IC50", "setting": "[3]; extracts", "value": "0.18 ± 0.06", "unit": "µg/mL"},
      {"measurement": "IC50 (μg/mL) KB", "setting": "[4]", "value": "0.27 ± 0.01", "unit": "µg/mL"},
      {"measurement": "IC50", "setting": "[5]", "value": "0.58 ± 0.01", "unit": "µg/mL"},
      {"measurement": "IC50", "setting": "[6]; extracts", "value": "0.24 ± 0.04", "unit": "µg/mL"}
    ]},
    {"smiles": "C/C1=C\\CC[C@H](C)C(=O)C[C@H](C(C)C)C(=O)C1", "note": "[Neocurdione (2), neocurdione]", "values": [
      {"measurement": "IC50", "setting": "[1]; MRC5, isolated compounds", "value": "59 ± 0.4", "unit": "µg/mL"},
      {"measurement": "IC50", "setting": "[2]; isolated compounds", "value": "53.5 ± 1.1", "unit": "µg/mL"},
      {"measurement": "IC50", "setting": "[3]; isolated compounds", "value": "46.2 ± 1.1", "unit": "µg/mL"},
      {"measurement": "IC50", "setting": "[6]; isolated compounds", "value": "64 ± 1.3", "unit": "µg/mL"}
    ]},
    {"smiles": "CC[C@H](CC[C@@H](C)[C@H]1CC[C@H]2[C@@H]3CC=C4C[C@@H](O)CC[C@]4(C)[C@H]3CC[C@]12C)C(C)C", "note": "[β-sitosterol (8), β-sitosterol]", "values": [
      {"measurement": "cytotoxicity (in words)", "setting": "[7]", "value": "low cytotoxicity"},
      {"measurement": "cytotoxicity (in words)", "setting": "[8]", "value": "low cytotoxicity"},
      {"measurement": "cytotoxicity (in words)", "setting": "[9]", "value": "low cytotoxicity"}
    ]},
    {"smiles": "C/C1=C\\CC[C@@]2(C)O[C@@H]2C(=O)c2c(C)coc2C1", "note": "[Zederone (5), zederone]", "values": [
      {"measurement": "IC50", "setting": "[1]; MRC5, isolated compounds", "value": "> 100", "unit": "µg/mL"},
      {"measurement": "IC50", "setting": "[2]; isolated compounds", "value": "> 100", "unit": "µg/mL"},
      {"measurement": "IC50", "setting": "[3]; isolated compounds", "value": "> 100", "unit": "µg/mL"},
      {"measurement": "IC50", "setting": "[6]; isolated compounds", "value": "> 100", "unit": "µg/mL"}
    ]}
  ]
}
